The source made the active and inactive calls.
How the values were obtained:
[1] = target: T1, Sentrin-specific protease 8 (Homo sapiens, UniProt Q96LD8); format: functional;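 also: luminescence read-out of SENP8 inhibition, dose-response confirmation following an ultra-high-throughput screen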
T1 sequence (Q96LD8 whole entry): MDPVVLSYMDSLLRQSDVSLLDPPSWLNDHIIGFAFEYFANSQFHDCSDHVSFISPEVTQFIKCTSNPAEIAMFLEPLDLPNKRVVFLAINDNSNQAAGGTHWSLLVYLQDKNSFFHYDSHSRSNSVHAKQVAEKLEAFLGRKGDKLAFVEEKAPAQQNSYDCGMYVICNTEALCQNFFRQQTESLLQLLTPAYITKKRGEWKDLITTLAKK

[2] = target: T2, Sentrin-specific protease 6 (Homo sapiens, UniProt Q9GZR1); format: functional;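 also: Luminescence-based dose-response confirmatory assay of SENP6 inhibition, following up an ultra-high-throughput screen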
T2 sequence (Q9GZR1 whole entry): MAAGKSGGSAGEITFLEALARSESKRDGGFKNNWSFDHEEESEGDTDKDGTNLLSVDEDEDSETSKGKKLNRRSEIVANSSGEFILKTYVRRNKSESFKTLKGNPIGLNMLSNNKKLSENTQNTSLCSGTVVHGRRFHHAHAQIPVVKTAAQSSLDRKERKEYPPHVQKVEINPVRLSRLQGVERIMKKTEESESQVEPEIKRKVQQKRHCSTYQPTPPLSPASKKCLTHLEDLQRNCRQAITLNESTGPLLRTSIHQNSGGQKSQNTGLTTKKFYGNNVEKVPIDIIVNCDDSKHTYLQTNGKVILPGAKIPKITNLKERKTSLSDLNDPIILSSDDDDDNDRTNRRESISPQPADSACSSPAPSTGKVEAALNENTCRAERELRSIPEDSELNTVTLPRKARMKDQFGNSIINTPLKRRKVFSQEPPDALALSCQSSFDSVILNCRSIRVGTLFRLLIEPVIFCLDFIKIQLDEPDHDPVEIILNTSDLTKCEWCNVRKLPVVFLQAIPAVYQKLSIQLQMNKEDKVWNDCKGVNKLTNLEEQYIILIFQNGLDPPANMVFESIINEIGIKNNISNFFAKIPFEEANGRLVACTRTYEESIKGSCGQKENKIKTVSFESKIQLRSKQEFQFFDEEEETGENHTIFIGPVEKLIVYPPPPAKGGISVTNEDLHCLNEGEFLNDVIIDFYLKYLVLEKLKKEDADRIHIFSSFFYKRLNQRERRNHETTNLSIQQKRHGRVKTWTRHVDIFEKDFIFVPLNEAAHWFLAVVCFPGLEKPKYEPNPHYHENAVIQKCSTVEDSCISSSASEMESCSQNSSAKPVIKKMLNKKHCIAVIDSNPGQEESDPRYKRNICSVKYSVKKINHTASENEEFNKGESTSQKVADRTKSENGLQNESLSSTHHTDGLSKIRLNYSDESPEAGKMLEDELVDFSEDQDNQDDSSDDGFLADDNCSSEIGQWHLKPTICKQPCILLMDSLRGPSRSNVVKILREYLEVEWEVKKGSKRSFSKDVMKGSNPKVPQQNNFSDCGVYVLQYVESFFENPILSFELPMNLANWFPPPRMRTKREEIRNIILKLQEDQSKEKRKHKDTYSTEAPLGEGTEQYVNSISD

Streptokinase A = target: T3, Streptokinase A (Streptococcus pyogenes serotype M1, UniProt P10520); assay: S. pyogenes streptokinase expression inhibitors, potency, dose response, plasminogen activation absorbance, OD405 (AID 1914); format: functional, Streptococcus pyogenes M1 GAS;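 also: secreted streptokinase activity via plasminogen activation per viability signal from cell pellet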
T3 sequence (P10520 whole entry): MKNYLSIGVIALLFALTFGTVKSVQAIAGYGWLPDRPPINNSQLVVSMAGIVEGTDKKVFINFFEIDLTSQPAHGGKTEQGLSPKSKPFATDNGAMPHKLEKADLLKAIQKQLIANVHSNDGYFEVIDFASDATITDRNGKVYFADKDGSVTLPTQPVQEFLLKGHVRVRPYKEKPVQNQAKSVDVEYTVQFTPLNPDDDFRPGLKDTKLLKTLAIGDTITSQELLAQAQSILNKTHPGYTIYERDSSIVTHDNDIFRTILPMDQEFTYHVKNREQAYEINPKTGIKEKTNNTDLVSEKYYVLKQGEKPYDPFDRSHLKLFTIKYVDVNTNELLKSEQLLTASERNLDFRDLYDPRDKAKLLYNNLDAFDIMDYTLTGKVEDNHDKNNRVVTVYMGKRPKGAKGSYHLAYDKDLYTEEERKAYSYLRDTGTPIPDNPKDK

[3] = system: Streptococcus sp. 'group A'; assay: growth inhibition of control SK(-) GAS strain, dose response, counter-screen for streptokinase expression inhibitor project, luminescence, kanamycin, BacTiterGlo, confirmation (AID 1900); format: functional, organism-based
Streptococcus = assay: Group A Streptococcus viability loss, dose response, counter-screen for streptokinase expression inhibitor project, luminescence, BacTiterGlo (AID 1915); format: functional, organism-based;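 also: potency for reduction of bacterial viability or growth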
Caspase-3 = target: T4, Caspase-3 (Homo sapiens, UniProt P42574); format: functional;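 also: Dose-response selectivity test against caspase-3 for candidate inhibitors of sentrin-specific proteases (SENPs)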
T4 sequence (P42574 whole entry): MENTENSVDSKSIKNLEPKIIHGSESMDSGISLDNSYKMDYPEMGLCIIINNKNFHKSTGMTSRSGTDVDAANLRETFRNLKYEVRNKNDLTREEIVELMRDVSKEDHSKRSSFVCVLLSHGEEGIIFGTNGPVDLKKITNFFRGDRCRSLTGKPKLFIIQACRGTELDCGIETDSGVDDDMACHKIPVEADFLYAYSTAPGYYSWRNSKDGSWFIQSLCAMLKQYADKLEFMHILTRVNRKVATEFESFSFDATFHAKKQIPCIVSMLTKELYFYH

[4] = target: T5, Sentrin-specific protease 7 (Homo sapiens, UniProt Q9BQF6); format: functional;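 also: Luminescence-based dose-response confirmation of ultra-high-throughput screening hits, measuring inhibition of SENP7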
T5 sequence (Q9BQF6 whole entry): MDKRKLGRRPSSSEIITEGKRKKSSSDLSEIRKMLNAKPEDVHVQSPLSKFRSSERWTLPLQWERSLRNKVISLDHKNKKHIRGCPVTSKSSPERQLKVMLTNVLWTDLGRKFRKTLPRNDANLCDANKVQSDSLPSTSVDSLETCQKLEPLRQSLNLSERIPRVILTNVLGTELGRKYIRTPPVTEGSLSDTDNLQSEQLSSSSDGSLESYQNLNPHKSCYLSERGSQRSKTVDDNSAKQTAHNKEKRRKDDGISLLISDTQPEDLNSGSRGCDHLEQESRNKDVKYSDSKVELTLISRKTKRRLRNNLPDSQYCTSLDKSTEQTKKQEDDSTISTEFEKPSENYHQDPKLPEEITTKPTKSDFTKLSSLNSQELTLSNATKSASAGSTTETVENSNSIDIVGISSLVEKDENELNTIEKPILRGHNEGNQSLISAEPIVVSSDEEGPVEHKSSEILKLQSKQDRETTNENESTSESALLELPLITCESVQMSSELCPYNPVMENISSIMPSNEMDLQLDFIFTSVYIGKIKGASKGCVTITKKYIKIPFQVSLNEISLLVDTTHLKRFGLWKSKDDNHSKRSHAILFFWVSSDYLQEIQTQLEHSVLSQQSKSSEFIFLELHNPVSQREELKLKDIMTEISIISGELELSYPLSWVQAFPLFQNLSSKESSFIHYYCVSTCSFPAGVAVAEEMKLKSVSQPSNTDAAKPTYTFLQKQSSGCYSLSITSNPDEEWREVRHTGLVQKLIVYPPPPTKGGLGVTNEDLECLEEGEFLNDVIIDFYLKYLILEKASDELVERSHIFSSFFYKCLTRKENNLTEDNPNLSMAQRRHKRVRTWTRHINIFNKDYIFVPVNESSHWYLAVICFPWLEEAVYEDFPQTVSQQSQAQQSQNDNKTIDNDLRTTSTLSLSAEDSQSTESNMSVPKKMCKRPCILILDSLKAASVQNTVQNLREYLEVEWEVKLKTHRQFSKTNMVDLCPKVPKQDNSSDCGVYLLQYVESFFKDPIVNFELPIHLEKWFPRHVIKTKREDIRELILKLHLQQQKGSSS

P388 = assay: cells; format: functional; conditions: Mus musculus
P388/ADR = assay: cells; format: functional; conditions: Mus musculus
SN12K1 = assay: cells; format: functional; conditions: Homo sapiens

Structure (SMILES)	IC50 [1]	IC50 [2]	EC50 (Streptokinase A)	EC50 [3]	EC50 (Streptococcus)	IC50 (Caspase-3)	IC50 [4]	GI50 (P388)	GI50 (P388/ADR)	GI50 (SN12K1)
Cc1cccc(NCc2nc3ccccc3n2Cc2ccccc2)c1	54.9 µM (active)	37.7 µM (active)	> 150 µM (not active)	8.81 µM (active)	> 150 µM (not active)	44.6 µM (active)	12.7 µM (active)			
CCOC(=O)CCc1c(C)c2c(O)cc(O)cc2oc1=O								3.77 µM (inactive)	14 µM (inactive)	> 94.2 µM (inactive)
N/C(S)=N/N=C/c1ncccc1O								0.347 µM (active)	0.366 µM (active)	0.382 µM (active)
CCOC(=O)c1cc2ccc3ccccc3c2s1	> 100 µM (inactive)	70.9 µM (active)				49.5 µM (active)	10.5 µM (active)			
Nc1c(S(=O)(=O)O)cc(S(=O)(=O)O)c2ccc(/N=N/c3ccc(/C=C/c4ccc(/N=N/c5ccc6c(S(=O)(=O)O)cc(S(=O)(=O)O)c(N)c6c5O)cc4S(=O)(=O)O)c(S(=O)(=O)O)c3)c(O)c12								73.5 µM (inactive)		> 100 µM (inactive)
